Square brackets hold non-standard residues; d marks the D form. Peptide text beside a SMILES is read from it. * marks the point of attachment. Pyrrolidine(2S-propanoyl) = CCC(=O)[C@@H]1CCCN1*; X2 = C#CCCCC[C@H](C)C[C@@H](C)C(=O)*; NMeI = CC[C@H](C)[C@H](NC)C(=O)O; X1 = C#CCCCCCC[C@@H](C)C(=O)*; NMeV = CN[C@H](C(=O)O)C(C)C

Here are results for two compounds from ChEMBL document CHEMBL5046243, “Odookeanynes A and B, Acetylene-Containing Lipopeptides from an Okeania sp. Marine Cyanobacterium” (J Nat Prod, 2022).

Series [1] deals with 3T3-L1. Nature of the series: Cytotoxicity against mouse 3T3-L1 cells assessed as reduction in cell viability at 30 uM in presence of insulin measured after 3 days by MTT assay. In kind it is toxicity, cell-based. The settings on record: 3t3-l1, 72 h, time 3 day. Background: Tetrazolium dyes change colour on reduction, which living cells bring about.
Series [2] is described as follows: Effect on preadipocyte differentiation in mouse 3T3-L1 cells assessed as lipid droplet accumulation at 10 uM in presence of insulin measured after 9 days by Oil Red O staining based assay. In kind it is functional. The settings on record: time 9 day.

In the case of `C#CCCCCCC[C@@H](C)C(=O)N(C)[C@H](C(=O)N(C)[C@H](C(=O)N1CCC[C@H]1C(=O)N(C)[C@H](C(=O)N1CCC[C@H]1C(=O)CC)C(C)C)[C@@H](C)CC)C(C)C` (X1-[NMeV][NMeI]P[NMeV]-{Pyrrolidine(2S-propanoyl)}), in series [1], the Activity result is “Non-Toxic”. The “fold change (FC)” value in series [2] is reported as 1.9.

In the case of `C#CCCCC[C@H](C)C[C@@H](C)C(=O)N(C)[C@H](C(=O)N(C)[C@H](C(=O)N1CCC[C@H]1C(=O)N(C)[C@H](C(=O)N1CCC[C@H]1C(=O)CC)C(C)C)[C@@H](C)CC)C(C)C` (X2-[NMeV][NMeI]P[NMeV]-{Pyrrolidine(2S-propanoyl)}), the Activity result in series [1] is “Non-Toxic”. In addition, in series [2], the “fold change (FC)” value is listed as 2.1.
